According to the supplement of paper PMC13380429:

How the values were obtained:
Settings in all cases: 72 h
[1] = tested on: Caco-2; assay: cell viability relative to DMSO; higher = less toxic
[2] = tested on: Vero E6; assay: as above
[3] = tested on: HepG2; assay: as above
[4] = tested on: Calu-3; assay: as above
[5] = tested on: U2OS; assay: as above
[6] = tested on: Caco-2; assay: drug sensitivity score (DSS) for viability; higher = more toxic; extreme values may be limits of the assay
[7] = tested on: Vero E6; assay: as above
[8] = tested on: HepG2; assay: as above
[9] = tested on: Calu-3; assay: as above
[10] = tested on: U2OS; assay: as above
[11] = tested on: Caco-2; assay: relative viability EC50 (midpoint between 100% and the lowest measured viability); higher = less toxic
[12] = tested on: Vero E6; assay: as above
[13] = tested on: HepG2; assay: as above
[14] = tested on: Calu-3; assay: as above
[15] = tested on: U2OS; assay: as above

Structure (SMILES) | cell viability ([1]; 1 nM) [%] | cell viability ([1]; 10 nM) [%] | cell viability ([1]; 100 nM) [%] | cell viability ([1]; 1000 nM) [%] | cell viability ([1]; 10000 nM) [%] | cell viability ([2]; 1 nM) [%] | cell viability ([2]; 10 nM) [%] | cell viability ([2]; 100 nM) [%] | cell viability ([2]; 1000 nM) [%] | cell viability ([2]; 10000 nM) [%] | cell viability ([3]; 1 nM) [%] | cell viability ([3]; 10 nM) [%] | cell viability ([3]; 100 nM) [%] | cell viability ([3]; 1000 nM) [%] | cell viability ([3]; 10000 nM) [%] | cell viability ([4]; 1 nM) [%] | cell viability ([4]; 10 nM) [%] | cell viability ([4]; 100 nM) [%] | cell viability ([4]; 1000 nM) [%] | cell viability ([4]; 10000 nM) [%] | cell viability ([5]; 1 nM) [%] | cell viability ([5]; 10 nM) [%] | cell viability ([5]; 100 nM) [%] | cell viability ([5]; 1000 nM) [%] | cell viability ([5]; 10000 nM) [%] | drug sensitivity score [6] | drug sensitivity score [7] | drug sensitivity score [8] | drug sensitivity score [9] | drug sensitivity score [10] | relative viability EC50 [11] [µM] | relative viability EC50 [12] [µM] | relative viability EC50 [13] [µM] | relative viability EC50 [14] [µM] | relative viability EC50 [15] [µM]
CN1C(C(=O)Nc2ccccn2)=C(O)c2ccccc2S1(=O)=O [piroxicam] | 93.6 | 96 | 104 | 100 | 100 | 93.1 | 101 | 94.4 | 93.5 | 114 | 92 | 107 | 92.5 | 105 | 115 | 99.8 | 95.5 | 101 | 96.8 | 105 | 98.5 | 94.9 | 99.3 | 95.9 | 101 | 0 | 0 | 0 | 0 | 0 | > 10 | > 10 | > 10 | > 10 | > 10
C[C@H](Cn1cnc2c(N)ncnc21)OCP(=O)(O)O [tenofovir] | 97.8 | 89.2 | 96.9 | 99.6 | 107 | 94.4 | 94.4 | 97.2 | 94.5 | 107 | 93.9 | 94.6 | 105 | 107 | 115 | 98.4 | 101 | 94.7 | 93.3 | 93.8 | 101 | 98.6 | 102 | 99.8 | 103 | 0 | 0 | 0 | 0 | 0 | > 10 | > 10 | > 10 | > 10 | > 10
COCc1nc2c([nH]1)c(=O)n(C)c(=O)n2CC(C)C [MMPX] | 91.8 | 91.8 | 96.9 | 95.7 | 96.3 | 97.8 | 94.2 | 99.2 | 97.5 | 99.2 | 98 | 94 | 101 | 94.9 | 100 | 102 | 100 | 98.1 | 103 | 96 | 95.8 | 100 | 96.4 | 104 | 98.2 | 0 | 0 | 0 | 0 | 0 | > 10 | > 10 | > 10 | > 10 | > 10
Cc1sc(C)c2c1CCC=C2c1c[nH]cn1 [TC-G-1000] | 106 | 93.3 | 100 | 99.2 | 94.6 | 103 | 96.4 | 100 | 99.9 | 96.7 | 111 | 108 | 111 | 97 | 104 | 102 | 97.3 | 102 | 97.2 | 102 | 101 | 96.8 | 95.6 | 102 | 97 | 0 | 0 | 0 | 0 | 0 | > 10 | > 10 | > 10 | > 10 | > 10
Cc1ncc(CO)c(CO)c1O [pyridoxine] | 96.4 | 80.3 | 94.3 | 105 | 88 | 102 | 105 | 97.8 | 108 | 106 | 98.5 | 105 | 91 | 96.2 | 107 | 92.2 | 97.2 | 97.1 | 98.5 | 98.6 | 96.7 | 94.2 | 98.1 | 94.6 | 96.8 | 0 | 0 | 0 | 0 | 0 | > 10 | > 10 | > 10 | > 10 | > 10
O=C(Oc1ccccc1C(=O)O)c1ccccc1O [sasapyrine] | 106 | 95.3 | 90.3 | 82.8 | 81.9 | 110 | 99.9 | 102 | 88.3 | 89.8 | 93.1 | 86.4 | 100 | 91.7 | 105 | 87.8 | 108 | 100 | 100 | 93 | 100 | 98.6 | 101 | 97.2 | 94.9 | 2.6 | 0.4 | 0 | 0 | 0 | > 10 | > 10 | > 10 | > 10 | > 10
C(#CCN1CCCC1)CN1CCCC1 [tremorine] | 91.8 | 108 | 87.3 | 97.7 | 83.1 | 103 | 108 | 98.5 | 104 | 92 | 88.5 | 103 | 100 | 97.8 | 93.6 | 109 | 104 | 96.3 | 88.3 | 103 | 94.9 | 101 | 91.5 | 95.3 | 92.7 | 0.3 | 0 | 0 | 0 | 0 | > 10 | > 10 | > 10 | > 10 | > 10
N[C@@H]1c2cccnc2[C@H](OC(=O)N2CCC(n3c(=O)[nH]c4ncccc43)CC2)CC[C@H]1c1cccc(F)c1F [rimegepant] | 99.3 | 94.5 | 98.1 | 91.2 | 102 | 97 | 96.8 | 91.6 | 99.7 | 112 | 92.4 | 98.6 | 98.8 | 106 | 104 | 90.7 | 95.3 | 98.4 | 92.9 | 97.6 | 102 | 96.1 | 101 | 97.2 | 100 | 0 | 0 | 0 | 0 | 0 | > 10 | > 10 | > 10 | > 10 | > 10
OCCN1CCN(CCCN2c3ccccc3C=Cc3ccccc32)CC1 [opipramol] | 89.8 | 102 | 88.6 | 100 | 76.6 | 107 | 99.8 | 104 | 98.5 | 83.9 | 107 | 104 | 98 | 91.4 | 92.1 | 100 | 93.3 | 99.7 | 100 | 98 | 97.6 | 95.6 | 101 | 103 | 97 | 0.8 | 0.5 | 0 | 0 | 0 | > 10 | > 10 | > 10 | > 10 | > 10
CC(C)c1cc(-c2ccc(F)c3ccccc23)nc(N)n1 | 90.7 | 101 | 102 | 92.7 | 101 | 94.1 | 98.6 | 98.8 | 102 | 107 | 103 | 119 | 99.2 | 99.3 | 113 | 80.3 | 103 | 99.7 | 107 | 108 | 93.1 | 96.6 | 98.7 | 97.9 | 100 | 0 | 0 | 0 | 0 | 0 | > 10 | > 10 | > 10 | > 10 | > 10
OCc1ccccc1O [salicyl-alcohol] | 101 | 97.3 | 111 | 107 | 102 | 98.8 | 104 | 95.5 | 105 | 110 | 104 | 98.2 | 85.7 | 105 | 94.2 | 95.5 | 109 | 108 | 94.2 | 96.9 | 103 | 95.4 | 101 | 94.4 | 98.6 | 0 | 0 | 0 | 0 | 0 | > 10 | > 10 | > 10 | > 10 | > 10
CCOc1ccc(S(=O)(=O)O)c2cccnc12 [actinoquinol] | 91.1 | 78 | 87.3 | 102 | 95.1 | 95.4 | 90.2 | 92.5 | 95.1 | 101 | 91 | 101 | 95.1 | 98.5 | 110 | 99.4 | 99.4 | 99 | 99.8 | 99.1 | 96.3 | 98.1 | 94 | 94.6 | 95.5 | 0 | 0 | 0 | 0 | 0 | > 10 | > 10 | > 10 | > 10 | > 10
COc1ccc(N(C(=O)Oc2c(C)cccc2C)c2ccnc(Nc3ccc(N4CCN(C)CC4)cc3)n2)c(OC)c1 [WH-4-023] | 101 | 89.4 | 102 | 114 | 103 | 95.4 | 97.4 | 96.7 | 93.7 | 84.8 | 92.7 | 91.9 | 93.2 | 100 | 101 | 93.3 | 104 | 95.8 | 104 | 89.8 | 101 | 96.8 | 98.1 | 107 | 99.8 | 0 | 0.2 | 0 | 0 | 0 | > 10 | > 10 | > 10 | > 10 | > 10
